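Step 1: Grow cells in 96-well plates. Step 2: Expose to compound for 48 hours at 5 concentrations. Step 3: Interpolate endpoints linearly; if unreached, use highest concentration. Abbreviation: GI50, concentration required for 50% inhibition of growth. The concentration for full growth arrest is given as TGI.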
Columns and labels:
Assay in all cases: growth of human tumour cells (NCI), 48 h
A549 NSCLC = tested on: A549 NSCLC
CCRF-CEM leukemia = tested on: CCRF-CEM leukemia
786-0 renal = tested on: 786-0 renal
KM12 colon = tested on: KM12 colon
MDA-MB-231 breast = tested on: MDA-MB-231 breast
NCI-H23 lung = tested on: NCI-H23 lung
HOP-92 NSCLC = tested on: HOP-92 NSCLC
BT-549 breast = tested on: BT-549 breast
RXF 393 renal = tested on: RXF 393 renal
U251 CNS = tested on: U251 CNS
IGROV1 ovarian = tested on: IGROV1 ovarian
HCC-2998 colon = tested on: HCC-2998 colon
A498 renal = tested on: A498 renal
UACC-257 melanoma = tested on: UACC-257 melanoma
OVCAR-5 ovarian = tested on: OVCAR-5 ovarian
SNB-75 CNS = tested on: SNB-75 CNS
SNB-19 CNS = tested on: SNB-19 CNS
SK-MEL-28 melanoma = tested on: SK-MEL-28 melanoma
OVCAR-3 ovarian = tested on: OVCAR-3 ovarian
SW-620 colon = tested on: SW-620 colon
ACHN renal = tested on: ACHN renal
UO-31 renal = tested on: UO-31 renal
SR leukemia = tested on: SR leukemia
UACC-62 melanoma = tested on: UACC-62 melanoma
T-47D breast = tested on: T-47D breast
EKVX NSCLC = tested on: EKVX NSCLC
SF-268 CNS = tested on: SF-268 CNS
HOP-62 NSCLC = tested on: HOP-62 NSCLC
OVCAR-4 ovarian = tested on: OVCAR-4 ovarian
K-562 leukemia = tested on: K-562 leukemia
SN12C renal = tested on: SN12C renal
M14 melanoma = tested on: M14 melanoma
HS 578T breast = tested on: HS 578T breast
SF-539 CNS = tested on: SF-539 CNS
SK-OV-3 ovarian = tested on: SK-OV-3 ovarian
OVCAR-8 ovarian = tested on: OVCAR-8 ovarian
RPMI-8226 leukemia = tested on: RPMI-8226 leukemia
NCI-H226 lung = tested on: NCI-H226 lung
NCI-H460 lung = tested on: NCI-H460 lung
SK-MEL-5 melanoma = tested on: SK-MEL-5 melanoma
HCT-15 colon = tested on: HCT-15 colon
PC-3 prostate = tested on: PC-3 prostate
HT29 colon = tested on: HT29 colon
NCI/ADR-RES ovarian = tested on: NCI/ADR-RES ovarian
DU-145 prostate = tested on: DU-145 prostate
SF-295 CNS = tested on: SF-295 CNS
MDA-MB-435 = tested on: MDA-MB-435
MOLT-4 leukemia = tested on: MOLT-4 leukemia
TK-10 renal = tested on: TK-10 renal
MALME-3M melanoma = tested on: MALME-3M melanoma

SMILES: Cc1cc(N2CCSCC2)nc(NC2CCCC(Nc3ccnc4cc(Cl)ccc34)C2)n1 (stereo not given)
- GI50 (A549 NSCLC): 2880 nM
- TGI (A549 NSCLC): 8910 nM
- GI50 (CCRF-CEM leukemia): 2620 nM
- TGI (CCRF-CEM leukemia): 10900 nM
- GI50 (786-0 renal): 1520 nM
- TGI (786-0 renal): 2920 nM
- GI50 (KM12 colon): 1940 nM
- TGI (KM12 colon): 4250 nM
- GI50 (MDA-MB-231 breast): 1950 nM
- TGI (MDA-MB-231 breast): 3890 nM
- GI50 (NCI-H23 lung): 2550 nM
- TGI (NCI-H23 lung): 7990 nM
- GI50 (HOP-92 NSCLC): 1650 nM
- TGI (HOP-92 NSCLC): 3450 nM
- GI50 (BT-549 breast): 1710 nM
- TGI (BT-549 breast): 3790 nM
- GI50 (RXF 393 renal): 1410 nM
- TGI (RXF 393 renal): 2930 nM
- GI50 (U251 CNS): 1910 nM
- TGI (U251 CNS): 3700 nM
- GI50 (IGROV1 ovarian): 1970 nM
- TGI (IGROV1 ovarian): 5390 nM
- GI50 (HCC-2998 colon): 1810 nM
- TGI (HCC-2998 colon): 3630 nM
- GI50 (A498 renal): 2070 nM
- TGI (A498 renal): 4640 nM
- GI50 (UACC-257 melanoma): 2140 nM
- TGI (UACC-257 melanoma): 4130 nM
- GI50 (OVCAR-5 ovarian): 2880 nM
- TGI (OVCAR-5 ovarian): 14100 nM
- GI50 (SNB-75 CNS): 1280 nM
- TGI (SNB-75 CNS): 2940 nM
- GI50 (SNB-19 CNS): 3260 nM
- TGI (SNB-19 CNS): 11500 nM
- GI50 (SK-MEL-28 melanoma): 1900 nM
- TGI (SK-MEL-28 melanoma): 3700 nM
- GI50 (OVCAR-3 ovarian): 1840 nM
- TGI (OVCAR-3 ovarian): 3720 nM
- GI50 (SW-620 colon): 1830 nM
- TGI (SW-620 colon): 3770 nM
- GI50 (ACHN renal): 2060 nM
- TGI (ACHN renal): 4460 nM
- GI50 (UO-31 renal): 1410 nM
- TGI (UO-31 renal): 2770 nM
- GI50 (SR leukemia): 452 nM
- TGI (SR leukemia): 2350 nM
- GI50 (UACC-62 melanoma): 1940 nM
- TGI (UACC-62 melanoma): 3500 nM
- GI50 (T-47D breast): 2410 nM
- TGI (T-47D breast): 5900 nM
- GI50 (EKVX NSCLC): 2700 nM
- TGI (EKVX NSCLC): 10800 nM
- GI50 (SF-268 CNS): 1380 nM
- TGI (SF-268 CNS): 3130 nM
- GI50 (HOP-62 NSCLC): 1690 nM
- TGI (HOP-62 NSCLC): 3380 nM
- GI50 (OVCAR-4 ovarian): 1610 nM
- TGI (OVCAR-4 ovarian): 5130 nM
- GI50 (K-562 leukemia): 1140 nM
- TGI (K-562 leukemia): 3410 nM
- GI50 (SN12C renal): 1900 nM
- TGI (SN12C renal): 4370 nM
- GI50 (M14 melanoma): 1850 nM
- TGI (M14 melanoma): 3720 nM
- GI50 (HS 578T breast): 1870 nM
- TGI (HS 578T breast): 4640 nM
- GI50 (SF-539 CNS): 1690 nM
- TGI (SF-539 CNS): 3160 nM
- GI50 (SK-OV-3 ovarian): 1980 nM
- TGI (SK-OV-3 ovarian): 4220 nM
- GI50 (OVCAR-8 ovarian): 2500 nM
- TGI (OVCAR-8 ovarian): 5510 nM
- GI50 (RPMI-8226 leukemia): 1640 nM
- TGI (RPMI-8226 leukemia): 4390 nM
- GI50 (NCI-H226 lung): 3200 nM
- TGI (NCI-H226 lung): 11000 nM
- GI50 (NCI-H460 lung): 1970 nM
- TGI (NCI-H460 lung): 4130 nM
- GI50 (SK-MEL-5 melanoma): 1720 nM
- TGI (SK-MEL-5 melanoma): 3110 nM
- GI50 (HCT-15 colon): 1240 nM
- TGI (HCT-15 colon): 2770 nM
- GI50 (PC-3 prostate): 2100 nM
- TGI (PC-3 prostate): 4520 nM
- GI50 (HT29 colon): 1610 nM
- TGI (HT29 colon): 3980 nM
- GI50 (NCI/ADR-RES ovarian): 2010 nM
- TGI (NCI/ADR-RES ovarian): 5150 nM
- GI50 (DU-145 prostate): 3130 nM
- TGI (DU-145 prostate): 12500 nM
- GI50 (SF-295 CNS): 1700 nM
- TGI (SF-295 CNS): 3270 nM
- GI50 (MDA-MB-435): 1680 nM
- TGI (MDA-MB-435): 3090 nM
- GI50 (MOLT-4 leukemia): 1550 nM
- TGI (MOLT-4 leukemia): 5340 nM
- GI50 (TK-10 renal): 2050 nM
- TGI (TK-10 renal): 4580 nM
- GI50 (MALME-3M melanoma): 1800 nM
- TGI (MALME-3M melanoma): 3430 nM

From PubChem BioAssay (NCI)
